Laboratory results published in patent US6632621B1, “G protein-coupled receptor-like receptors and modulators thereof” (priority 1999, dated 2003).
Like-named read-outs stand apart in the source and are kept apart here. Where no end group is shown, it is not given here.

What was measured:
[1] = target: human D2 receptor (Homo sapiens, UniProt P14416); conditions: 37° C. versus temperature-shift transfection protocol
Experimental: (§1) Aliquots of cell membranes prepared as described above and stored at −70° C. were thawed, homogenized, and diluted into buffer containing 20 mM HEPES, pH 7.4, 10 mM MgCl2, 1 mM EDTA, and 100 mM NaCl at a concentration of 10-50 μg/ml. Reaction mixtures were prepared in 96-well polypropylene plate, Nunc. Twenty microliters of a 10× putative modulator compound (including but not limited to potential peptide ligands) solution or a water control (20 μl), 18.2 µM GDP (0.11 ml, 10 μM final concentration), and a membrane preparation were mixed and placed on ice. The modulator/ligand-GDP-membrane mixtures were incubated for 20 minutes at room temperature on a shaking platform and then placed on ice.

[2] = target: T1, CEGPCR16 receptor (Caenorhabditis elegans, UniProt Q9XXU4); assay: [35S]GTPγS binding assay, CEGPCR16 expressed in CHO cells; type: biochemical, C. elegans
T1 sequence (Q9XXU4 1-365): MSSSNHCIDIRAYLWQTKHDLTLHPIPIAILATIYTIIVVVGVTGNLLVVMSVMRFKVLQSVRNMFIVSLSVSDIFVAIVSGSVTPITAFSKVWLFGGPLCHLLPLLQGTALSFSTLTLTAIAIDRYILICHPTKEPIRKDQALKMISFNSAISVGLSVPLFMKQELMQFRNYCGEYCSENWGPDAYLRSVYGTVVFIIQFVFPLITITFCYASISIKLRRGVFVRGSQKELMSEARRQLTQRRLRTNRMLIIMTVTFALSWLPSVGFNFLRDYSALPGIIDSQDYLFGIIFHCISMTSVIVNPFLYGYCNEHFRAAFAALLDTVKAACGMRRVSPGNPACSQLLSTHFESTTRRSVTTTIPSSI
Experimental: (§2) Recombinant pCR3.1 clones encoding invertebrate GPCR-like receptors were transformed into wild-type CHO-K1 cells and functional expression was achieved using a temperature-shift incubation protocol. The CHO-K1 cells were cultured at 37° C. in a humidified atmosphere of 5% CO2 in air in DMEM medium supplemented with 10% heat-inactivated fetal bovine serum (i.e., FBS), 10 μg/ml gentamicin, and 0.1 mM nonessential amino acids to give complete DMEM medium. Additionally, for incubations at temperatures lower than 37° C., the medium was fortified with 10 mM HEPES (pH 7.4). Cells were transfected with recombinant pCR3.1 clones containing GPCR-like receptor DNAs, using LipofectAMINE PLUS™, essentially according to the manufacturer's instructions. […] In separate plastic tubes, PLUS (20 μl/plate; Life Technologies) was added to 0.75 ml/plate of recombinant plasmid DNA in OptiMEM (5 μg/plate; Gibco/BRL—Life Technologies), mixed and incubated at room temperature for 15 minutes. Separately, LipofectAMINE (30 μl/plate) was mixed with 0.75 ml OptiMEM and added to the pre-complexed DNA/PLUS mixture and incubated at room temperature for 15 minutes. The culture medium was then replaced with serum-free transfection medium (DMEM, 5 ml/plate). The DNA-PLUS-LipofectAMINE complex was then added to the plates (1.5 ml/plate) and mixed gently into the medium, followed by a 3 hour incubation at 37° C. in 5% CO2. At this time, the medium was supplemented with complete DMEM medium containing 20% FBS (6.5 ml/plate) and incubation was continued at 37° C. in 5% CO2. After a total of 24 hours at 37° C. in 5% CO2, the medium was replaced with complete DMEM medium fortified with 10 mM HEPES (10 ml/plate) and the cells were moved to an incubator maintained at 28-30° C. in a humidified atmosphere of 5% CO2 in air. The incubation continued for an additional 24 hours, typically at the lower temperature indicated above. A plasmid encoding Green Fluorescent Protein (i.e., GFP, 4 μg/plate) was used for transient GFP expression in CHO-K1 cells to estimate the transfection yields under the same conditions as used for GPCR-like receptor polynucleotides.
(§3) To assess expression, membranes were prepared from transfected CHO-K1 cells. Transfected cells were washed once with ice-cold Dulbecco's phosphate-buffered saline (i.e., PBS), 5 ml per 10 cm plate, and the cells were scraped into 5 ml of the same buffer. Cell suspensions from multiple plates were combined and centrifuged at 500×g for 10 minutes at 4° C. The cell pellet was reconstituted in ice-cold TEE (25 mM Tris, pH 7.4, 5 mM EGTA, 5 mM EDTA). Convenient aliquots were snap-frozen in liquid nitrogen and stored at −70° C. After thawing, the cells were homogenized and centrifuged at 500×g for 5 minutes at 4° C. to pellet nuclei and unbroken cells. Tile supernatant was centrifuged at 47,000×g for 30 minutes at 4° C. The membrane pellet was washed once with TEE, resuspended in 20 mM HEPES, pH 7.4, 100 mM NaCl, 10 mM MgCl2, 1 mM EDTA (assay buffer), distributed into aliquots of 0.5-1.0 ml, and frozen in liquid nitrogen. Membrane aliquots were stored at −70° C. Membrane protein concentration was determined using the BCA Protein Assay Reagent from Pierce (Rockford, Ill.), with bovine serum albumin (i.e., BSA) as a standard.
as §1

[3] = target: T1, CEGPCR16 receptor; assay: as above; type: biochemical, C. elegans; conditions: membranes from cells transfected and maintained at 37° C.
[4] = target: T2, CEGPCR7 receptor (Caenorhabditis elegans, UniProt Q18534); assay: [35S]GTPγS binding assay, membranes of CHO cells transfected with CEGPCR7; type: biochemical, C. elegans
T2 construct: Each of the 22 putative GPCR-like receptor clones appeared to contain a full-length coding region; expressed in transfected cells; host or cells: CHO-K1, transient, pCR3.1 clone, 37 to 28 C temperature shift
T2 sequence (Q18534 1-457): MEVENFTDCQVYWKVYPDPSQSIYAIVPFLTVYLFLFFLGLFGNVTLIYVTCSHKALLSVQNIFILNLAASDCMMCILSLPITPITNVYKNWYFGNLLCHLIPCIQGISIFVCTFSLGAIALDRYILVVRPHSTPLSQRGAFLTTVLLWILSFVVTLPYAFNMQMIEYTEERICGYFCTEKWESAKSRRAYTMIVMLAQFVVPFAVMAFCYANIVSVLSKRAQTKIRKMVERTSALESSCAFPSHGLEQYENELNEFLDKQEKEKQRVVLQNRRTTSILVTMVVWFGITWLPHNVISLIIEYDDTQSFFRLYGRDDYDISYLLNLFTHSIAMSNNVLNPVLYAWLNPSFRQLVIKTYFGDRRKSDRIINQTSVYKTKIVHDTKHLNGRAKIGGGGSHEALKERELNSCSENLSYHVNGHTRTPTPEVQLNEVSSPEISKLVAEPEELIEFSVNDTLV
Experimental: as §2, §3
Aliquots of cell membranes prepared as described above and stored at −70° C. were thawed, homogenized, and diluted into buffer containing 20 mM HEPES, pH 7.4, 10 mM MgCl2, 1 mM EDTA, and 100 mM NaCl at a concentration of 10-50 μg/ml.

[5] = target: T3, CEGPCR5 (Caenorhabditis elegans, UniProt Q18179); assay: [35S]GTPγS binding assay, CEGPCR5 expressed in CHO cells; type: biochemical, C. elegans
T3 sequence (Q18179 1-402): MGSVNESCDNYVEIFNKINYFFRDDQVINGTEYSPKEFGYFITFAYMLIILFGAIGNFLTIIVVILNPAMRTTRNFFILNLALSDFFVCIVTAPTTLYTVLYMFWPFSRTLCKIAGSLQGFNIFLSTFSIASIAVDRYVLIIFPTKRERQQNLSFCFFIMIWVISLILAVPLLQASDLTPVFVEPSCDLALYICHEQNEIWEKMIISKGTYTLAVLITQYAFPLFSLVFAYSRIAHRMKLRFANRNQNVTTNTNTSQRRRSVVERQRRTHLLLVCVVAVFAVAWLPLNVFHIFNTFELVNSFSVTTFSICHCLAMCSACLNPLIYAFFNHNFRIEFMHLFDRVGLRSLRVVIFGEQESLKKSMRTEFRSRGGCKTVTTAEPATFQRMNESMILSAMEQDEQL

[6] = target: T4, CEGPCR12h receptor (Caenorhabditis elegans, UniProt Q20275); assay: [35S]GTPγS binding assay, CEGPCR12h expressed in CHO cells; type: biochemical, C. elegans; conditions: Table 11; peptides tested at 5 μM
T4 sequence (Q20275 1-402): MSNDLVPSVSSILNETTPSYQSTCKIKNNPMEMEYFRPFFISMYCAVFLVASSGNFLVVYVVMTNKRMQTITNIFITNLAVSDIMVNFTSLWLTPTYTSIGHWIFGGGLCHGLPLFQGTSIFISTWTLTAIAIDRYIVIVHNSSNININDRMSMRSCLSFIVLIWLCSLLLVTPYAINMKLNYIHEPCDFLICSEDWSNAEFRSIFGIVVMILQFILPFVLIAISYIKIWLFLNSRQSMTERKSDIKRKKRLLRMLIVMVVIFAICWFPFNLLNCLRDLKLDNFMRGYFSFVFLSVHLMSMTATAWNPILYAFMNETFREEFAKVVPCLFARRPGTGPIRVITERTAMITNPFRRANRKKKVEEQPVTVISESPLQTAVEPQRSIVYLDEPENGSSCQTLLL

[7] = target: T3, CEGPCR5; assay: [35S]GTPγS binding assay, CEGPCR5 expressed in CHO cells; type: biochemical, C. elegans; conditions: membranes from cells transfected and maintained at 37° C.
[8] = temperature shift to 28° C. 24 hours after transfection

Chain of human D2 receptor (P14416 whole entry): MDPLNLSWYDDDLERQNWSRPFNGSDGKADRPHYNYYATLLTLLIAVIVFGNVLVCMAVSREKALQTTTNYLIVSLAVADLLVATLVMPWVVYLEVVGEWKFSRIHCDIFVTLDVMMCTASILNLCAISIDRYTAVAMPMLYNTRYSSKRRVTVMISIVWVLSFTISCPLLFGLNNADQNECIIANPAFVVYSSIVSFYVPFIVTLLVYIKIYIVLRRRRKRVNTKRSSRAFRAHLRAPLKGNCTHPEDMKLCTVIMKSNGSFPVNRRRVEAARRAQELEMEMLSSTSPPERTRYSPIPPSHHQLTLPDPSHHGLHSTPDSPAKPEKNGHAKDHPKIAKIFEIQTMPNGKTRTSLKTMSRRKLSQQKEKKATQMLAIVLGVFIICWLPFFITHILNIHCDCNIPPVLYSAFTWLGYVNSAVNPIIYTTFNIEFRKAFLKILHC

## NCCc1ccc(O)c(O)c1 [dopamine]
[1]
  responses of the receptor to its ligand: the same regardless of the transfection protocol used

## ASEDALFGTMRF-NH2 [ASEDALFGTMRF-NH2]
[2]; Table 10, one range for the group of peptides, read-out: EC50 range
  EC50: 60 to 300 nM
[2]; [8]
  ligand-induced [35S]GTPγS binding: significant stimulation
[3]
  receptor activation by matched ligand: not detectably activated

## H-GLGPRPLRF-NH2 [GLGPRPLRF-NH2]
[4]; EC50, single values
  EC50: 207 nM
[4]; EC50 range, Table 7, one range for the group of peptides
  EC50: 200 to 250 nM
[4]; cooling (28° C.) protocol
  ligand-induced [35S]GTPγS binding, fold elevation in activity: 2.6 fold
[5]
  EC50: 1 to 10 nM
[5]; in words
  EC50: low nanomolar range
[5]; [8]
  ligand-induced [35S]GTPγS binding: significant stimulation
[6]
  activity at single concentration: active at
[7]
  receptor activation by matched ligand: not detectably activated
